Source: PMC11992225, “Antibacterial compounds against non-growing and intracellular bacteria” (npj Antimicrobials and Resistance, 2025)
Read-outs that look alike come from different tables or passages of the source.

Assays:
[1] = tested on: non-growing S. aureus DSM2569; assay: Dilution-regrowth assay (OD600, start-growth-time) on stationary-phase S. aureus; format: cell-based, Staphylococcus aureus; details: S. aureus; for EC50: regrowth delay of non-growing bacteria, 1:4 CA-MHB pH 7.4, 24 h treatment, OD600 8 h after dilution
Protocol: The cultures were grown and treated for 24 h in 1:4 CA-MHB (pH 7.4).
This approach allowed us to capture the time when cultures reached a threshold optical density (start-growth-time, SGT[15]).
The cultures were incubated for 24 h in non-baffled Erlenmeyer flasks at 37 °C with shaking at 200 rpm.
For P. aeruginosa and S. aureus, dose–response analysis was conducted in 96-well plates with a 200 μl assay volume, following the procedure used for screening assay validation experiments. […] Stock solutions were prepared and stored according to the manufacturers’ instructions, then diluted in 10% DMSO before use. Cultures were incubated for 24 h in 1:4 diluted CA-MHB medium under the same conditions used for UPEC cultivation. In preliminary experiments, each compound was tested at a concentration of 20 μM in the dilution-regrowth assay with 4 technical replicates. Regrowth was monitored using a microplate reader at 37 °C with continuous shaking, and OD600 was recorded every 20 min. The time at which OD600 exceeded the threshold of 0.12 was recorded as the Start_Growth-Time.
Statistical significance of the drug effects was assessed using a one-way ANOVA followed by Dunnett’s test, comparing each treatment to the drug-free control. Statistical significance of the differences in chemical characteristics between the hit compounds and the Prestwick library was assessed using a Mann–Whitney test. Statistical significance was set at P ≤ 0.05. A five-parameter logistic equation was used for asymmetric sigmoidal curve fitting and for EC50 and IC50 determination. The Venn diagram in Fig. 1F was prepared using BioVenn web application. Characteristics of the chemical and physical properties of Prestwick library compounds were obtained from Supplementary Table S1 from reference. Characteristics of the hit compounds not included in the Prestwick library were retrieved from the PubChem database.

[2] = tested on: non-growing S. aureus DSM2569; assay: Dose-dependent killing analysis (CFU spot-plating) of stationary-phase S. aureus; format: cell-based, Staphylococcus aureus; details: at 10 µM, 24 h treatment
Protocol: To determine the spectrum of activity of the compounds that were effective against non-growing UPEC, we further assessed their efficacy against the well-characterized Gram-negative and Gram-positive reference strains P. aeruginosa DSM1117 and S. aureus DSM2569, respectively. The cultures were grown and treated for 24 h in 1:4 CA-MHB (pH 7.4). […].
For survival analysis, bacteria were cultivated as described for the dose–response dilution-regrowth assay. Assays with UPEC were conducted at the CBCS screening facility using 96-well plates with a 200 μl sample volume, and compounds were dispensed using the Echo® (Labcyte) system. P. aeruginosa and S. aureus samples were treated according to the protocol used for the dilution-regrowth experiments. Treated samples were serially diluted 10-fold in PBS, and 10 μl drops were spot-plated onto rectangular LB agar plates using either a Beckman NXP robot (for UPEC) or an Integra VIAFLO96 electronic pipette (for P. aeruginosa and S. aureus). The LB agar plates were incubated overnight at 37 °C and scanned. Colonies were counted at the spots of the lowest dilution where individual colonies could be accurately distinguished. Each colony was manually marked on a separate image layer using the GNU Image Manipulation Program, and counted using NIST’s Integrated Colony Enumerator (NICE 1.4) software. The experiments were performed in three biological replicates.

Molecule	Regrowth, OD600 at 6h or 8h after dilution into drug-free medium (average) ([1]; drug concentration 0.1)	Regrowth, OD600 at 6h or 8h after dilution into drug-free medium (average) ([1]; drug concentration 0.5)	Regrowth, OD600 at 6h or 8h after dilution into drug-free medium (average) ([1]; drug concentration 2.5)	Regrowth, OD600 at 6h or 8h after dilution into drug-free medium (average) ([1]; drug concentration 10)	EC50 [1] [nM]	reduction of non-growing S. aureus [2]	EC50 ([1]; Staphylococcus aureus, DSM2569, read-out: EC50) [nM]
Plicamycin	0.578	0.347	0.205	0.143	359	–	–
CCCCC(CC)CNC(=N)NC(=N)NCCCCCCNC(=N)NC(=N)NCC(CC)CCCC (centres unmarked) [Alexidine]	0.539	0.527	0.433	0.087	–	below the limit of detection	3280
